The source of these data is US20100266604A1, “USE OF TAM RECEPTOR INHIBITORS AS IMMUNOENHANCERS AND TAM ACTIVATORS AS IMMUNOSUPPRESSORS” (The Salk Institute for Biological Studies, priority 2007, published 2010).

For assay [1], the system named is IRF-7 and IFI-204 mRNA in DCs. Description: Q-PCR of IRF-7 and IFI-204 mRNA in DCs. The note with it: splenic DCs, 300 U/ml IFNα. It is filed as cell-based, mouse. As to the method: (§1) Splenic DCs (1×10^6 cells/ml) or BM-DCs (5×10^6 cells/ml) were cultured in serum-free medium and treated with the indicated concentrations of murine recombinant Gas6, murine recombinant Protein S, the TLR ligands indicated above, recombinant mouse IFNα (PBL Biomedical laboratories), recombinant mouse Axl-FC chimera (R&D), cyclohexamide (Sigma) or Actinomycin D (Sigma). Whole cell lysates and RNA extraction were performed as indicated below.
(§2) After stimulation, cells were harvested, and total RNA was isolated using the RNeasy mini kit (Qiagen). Reverse transcription was performed according to manufacturer instructions with RT Superscript III (Invitrogen). PCR reactions were performed on an ABI Prism 7700 Sequence Detection System using SYBRGreen PCR master mix (Applied Biosystems). Each reaction was normalized against the expression of β-actin or GAPDH. Analyses of dissociation curves were performed with SDS software (Applied Biosystems) to ensure the absence of nonspecific amplification. Q-PCR primers used herein are listed below.

The subject of assay [2] is SOCS1 and SOCS3 mRNA in DCs. Briefly: Q-PCR of SOCS1 and SOCS3 mRNA in DCs. It is filed as cell-based, mouse. The following applies: for SOCS1 mRNA induction: 300 U/ml IFNα. The protocol: as §1, §2
For assay [3], the system named is Axl mRNA and protein in DCs. Briefly: Axl expression in DCs (Q-PCR, FACS, Western blot). The assay is classed as cell-based, mouse. The note with it: for Axl expression by Western blot: WT DCs. The protocol: as §1
DCs were washed in PBS and harvested in NuPage LDS sample buffer (Invitrogen) with 100 μM DTT. Whole cell lysates were resolved by electrophoresis, proteins were transferred to a PVDF membrane (Immobilon P, Millipore), blocked in 3% BSA/TBS-Tween-20 and probed with the indicated antibodies. For fluorescent western blotting with the Odyssey system, proteins were transferred to an Immobilon-FL PVDF membrane (Millipore) and incubated with two primary antibodies in 0.1% casein/PBS-Tween-20. Following incubation with fluorescence-labeled secondary antibodies, membranes were scanned with the Odyssey imaging system (LI-COR).
as §2
Cells were incubated for 15 minutes with a rat mAb to CD16/32 to block Fc receptors and then with primary antibodies for 20 minutes on ice. The following mAbs against murine molecules were used: allophycocyanin- and phycoerythrin-conjugated anti-CD11c, FITC-conjugated anti-MHC class I (H-2K^b) and anti-MHC class II (I-A^b), PerCP-Cy5.5-conjugated anti-CD3, anti-CD19 and anti-NK1.1 (all from BD Pharmingen). For Axl staining, cells were processed as described, fixed with 10% paraformaldehyde, permeabilized with Saponin (0.1%, Sigma), incubated with Axl (M-20) antibody for 30 minutes and then with anti-goat Cy5 antibody (Jackson ImmunoResearch). Fluorescent cells were acquired with a FacsSort flow cytometer (Becton Dickinson) and analyzed with FlowJo (Tree Star) software.

The subject of assay [4] is TLR-induced cytokine production in DCs. Description: DC activation assay: TLR-induced cytokine production (ELISA / ISRE luciferase reporter). The following applies: IFNα, 10 nM CpG, 15 hours, 3 nM ProS (FIG. 8A). The assay is classed as cell-based, mouse. As to the method:
Splenic DC or BM-DCs (1×10^6 cells/ml) were cultured overnight in serum-free medium (StemSpan, StemCell Technologies Inc.) in the presence of the indicated concentrations of LPS from Salmonella minnesota R595 Re (Alexis), CpG-ODN 1668 (TCCATGACGTTCCGATGCT; SEQ ID NO: 19; Integrated DNA Technologies) or Poly I:C (InvivoGen) alone or in the presence of murine recombinant Gas6 (R&D Systems) or murine recombinant Protein S (produced as described in Prasad et al., (2006) Mol Cell Neurosci 33:96-108). Cytokine production was quantified in cell-free supernatants by ELISA (ebioscience for IL-12, IL-6 and TNFα and PBL-biomedical for IFNα) or by a luciferase assay using a cell line containing an ISRE-responsive element luciferase reporter construct for Type I IFN (Jiang et al., (2005) Nat Immunol 6:565-570).

Assay [5] deals with TAM receptors (on mouse dendritic cells). Description: cell-based or functional assay.
In assay [6] the target is T1, Axl (mouse, endogenous in bone marrow-derived dendritic cells) (mouse, UniProt Q00993 19-888).
T1 construct: whole, on cells; Endogenous protein co-immunoprecipitated from Triton X-100 lysates of mouse BM-DCs, not a recombinant construct; also called TAM receptor
T1 sequence (looked up): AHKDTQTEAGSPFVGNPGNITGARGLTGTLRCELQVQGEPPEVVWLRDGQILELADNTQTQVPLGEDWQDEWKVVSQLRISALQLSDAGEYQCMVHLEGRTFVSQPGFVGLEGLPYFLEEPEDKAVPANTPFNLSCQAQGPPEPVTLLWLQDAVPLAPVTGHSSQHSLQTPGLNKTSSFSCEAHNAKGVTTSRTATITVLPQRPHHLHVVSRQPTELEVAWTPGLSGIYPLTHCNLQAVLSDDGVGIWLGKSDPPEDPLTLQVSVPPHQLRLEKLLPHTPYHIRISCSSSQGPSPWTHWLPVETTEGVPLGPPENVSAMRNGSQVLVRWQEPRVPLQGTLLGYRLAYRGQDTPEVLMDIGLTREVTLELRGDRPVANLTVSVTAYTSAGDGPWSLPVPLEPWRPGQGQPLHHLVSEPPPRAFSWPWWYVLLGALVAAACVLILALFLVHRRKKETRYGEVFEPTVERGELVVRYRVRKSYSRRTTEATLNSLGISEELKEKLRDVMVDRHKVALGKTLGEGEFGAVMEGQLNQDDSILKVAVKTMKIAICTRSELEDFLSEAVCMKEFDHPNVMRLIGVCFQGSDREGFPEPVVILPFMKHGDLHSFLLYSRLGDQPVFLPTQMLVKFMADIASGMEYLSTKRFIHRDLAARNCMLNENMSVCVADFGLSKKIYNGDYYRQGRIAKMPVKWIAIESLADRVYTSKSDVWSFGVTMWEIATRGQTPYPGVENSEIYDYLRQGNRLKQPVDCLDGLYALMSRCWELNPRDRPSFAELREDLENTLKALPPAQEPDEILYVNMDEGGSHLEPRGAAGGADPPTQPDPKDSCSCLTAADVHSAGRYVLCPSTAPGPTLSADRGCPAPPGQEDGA
Description: co-immunoprecipitation from BM-DC whole cell lysates, untreated (-) or treated 20 min with 50 nM Gas6 (+); IP with antibody to the IFN receptor R2 chain, immunoblot for Axl.

The target in assay [7] is T2, STAT1 (mouse, UniProt P42225).
T2 construct: endogenous full-length protein in the cell lysate; also called total STAT1
T2 sequence (transcription factor, looked up): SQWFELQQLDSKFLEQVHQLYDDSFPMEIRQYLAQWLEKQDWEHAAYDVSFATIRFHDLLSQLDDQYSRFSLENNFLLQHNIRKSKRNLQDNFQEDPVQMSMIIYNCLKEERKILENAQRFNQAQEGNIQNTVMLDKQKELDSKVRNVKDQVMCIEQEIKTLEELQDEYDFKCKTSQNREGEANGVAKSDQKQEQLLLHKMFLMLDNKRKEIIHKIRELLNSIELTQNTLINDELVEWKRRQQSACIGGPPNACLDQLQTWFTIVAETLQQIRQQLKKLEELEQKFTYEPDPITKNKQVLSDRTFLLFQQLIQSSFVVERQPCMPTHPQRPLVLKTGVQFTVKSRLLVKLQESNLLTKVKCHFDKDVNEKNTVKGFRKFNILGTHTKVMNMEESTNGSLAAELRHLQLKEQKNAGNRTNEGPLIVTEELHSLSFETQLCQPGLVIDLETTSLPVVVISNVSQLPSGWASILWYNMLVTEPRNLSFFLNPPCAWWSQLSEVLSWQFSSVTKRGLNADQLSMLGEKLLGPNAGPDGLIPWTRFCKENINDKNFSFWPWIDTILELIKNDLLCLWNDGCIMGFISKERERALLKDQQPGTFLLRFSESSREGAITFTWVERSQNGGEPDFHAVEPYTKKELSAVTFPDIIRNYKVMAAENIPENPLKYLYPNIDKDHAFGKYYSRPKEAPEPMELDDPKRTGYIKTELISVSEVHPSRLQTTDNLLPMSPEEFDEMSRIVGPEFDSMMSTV
Briefly: co-immunoprecipitation from BM-DC whole cell lysates, untreated (-) or treated 20 min with 50 nM Gas6 (+); IP with antibody to the IFN receptor R1 chain, immunoblot for STAT1.

Take IFNα: the “IFNα-induced IRF-7 and IFI-204 mRNA levels, WT versus TAM TKO DCs” value in assay [1] is “indistinguishable”. Further, the “SOCS1 mRNA expressed by TAM TKO DCs relative to WT DCs” value in assay [2] (IFN-treated, integrated over the 6-hour time course) is recorded as about 24%. Further, the “SOCS1 mRNA induction” value in assay [2] (TAM TKO splenic DCs) is recorded as “significantly blunted”; in assay [2] (WT splenic DCs, 2 hours, sustained up to 6 hours) it was “robust induction”. The Axl induction entry in assay [3] (STAT1−/− DCs) is given as “lost”. In addition, the “Axl expression by Western blot” value in assay [3] is recorded as “substantial up-regulation”.

“ProS: murine recombinant Protein S, the second agonist for TAM receptors”: in assay [4], the “inhibiting TLR-induced cytokine production in WT DCs, compared with Gas6” value is on record as “equally effective”.

In assay [5], “murine recombinant Gas6 (R&D Systems) (from UniProt Q61592 28-674) (ligand)” returned an SOCS1 mRNA expression in BM-DCs (Q-PCR) after addition of 50 nM Gas6 of 10 fold and an SOCS3 mRNA expression in BM-DCs (Q-PCR) after addition of 50 nM Gas6 of 10 fold.

On to poly I:C, for which the Axl induction result in assay [3] (Ifnar−/− DCs) and in assay [3] (STAT1−/− DCs) was “lost” each time. In assay [3], the “Axl expression by Western blot” value is recorded as “substantial up-regulation”.

B1: IFNAR2 (receptor, mouse, UniProt O35664 22-513, looked up)
receptor chain: SLETITPSAFDGYPDEPCTINITIRNSRLILSWELENKSGPPANYTLWYTVMSKDENLTKVKNCSDTTKSSCDVTDKWLEGMESYVVAIVIVHRGDLTVCRCSDYIVPANAPLEPPEFEIVGFTDHINVTMEFPPVTSKIIQEKMKTTPFVIKEQIGDSVRKKHEPKVNNVTGNFTFVLRDLLPKTNYCVSLYFDDDPAIKSPLKCIVLQPGQESGLSESAIVGITTSCLVVMVFVSTIVMLKRIGYICLKDNLPNVLNFRHFLTWIIPERSPSEAIDRLEIIPTNKKKRLWNYDYEDGSDSDEEVPTASVTGYTMHGLTGKPLQQTSDTSASPEDPLHEEDSGAEESDEAGAGAGAEPELPTEAGAGPSEDPTGPYERRKSVLEDSFPREDNSSMDEPGDNIIFNVNLNSVFLRVLHDEDASETLSLEEDTILLDEGPQRTESDLRIAGGDRTQPPLPSLPSQDLWTEDGSSEKSDTSDSDADVGDGYIMR
notes: endogenous full-length protein in the cell lysate; also called R2 chain of the type I IFN receptor; IFN receptor R2 chain
As for B1, the binding result in assay [6] is “no binding”.

B2: R1 chain of the type I IFN receptor (mouse, endogenous in BM-DCs) (receptor, UniProt P33896 27-590, looked up)
chain: ENLKPPENIDVYIIDDNYTLKWSSHGESMGSVTFSAEYRTKDEAKWLKVPECQHTTTTKCEFSLLDTNVYIKTQFRVRAEEGNSTSSWNEVDPFIPFYTAHMSPPEVRLEAEDKAILVHISPPGQDGNMWALEKPSFSYTIRIWQKSSSDKKTINSTYYVEKIPELLPETTYCLEVKAIHPSLKKHSNYSTVQCISTTVANKMPVPGNLQVDAQGKSYVLKWDYIASADVLFRAQWLPGYSKSSSGSRSDKWKPIPTCANVQTTHCVFSQDTVYTGTFFLHVQASEGNHTSFWSEEKFIDSQKHILPPPPVITVTAMSDTLLVYVNCQDSTCDGLNYEIIFWENTSNTKISMEKDGPEFTLKNLQPLTVYCVQARVLFRALLNKTSNFSEKLCEKTRPGSFSTIWIITGLGVVFFSVMVLYALRSVWKYLCHVCFPPLKPPRSIDEFFSEPPSKNLVLLTAEEHTERCFIIENTDTVAVEVKHAPEEDLRKYSSQTSQDSGNYSNEEEESVGTESGQAVLSKAPCGGPCSVPSPPGTLEDGTCFLGNEKYLQSPALRTEPALLC
notes: whole, on cells; Endogenous protein immunoprecipitated from mouse BM-DC lysates; also called IFNAR1; IFN receptor R1 chain
Take B2: the binding result in assay [7] is on record as “no binding”.
